Laboratory results published in patent US20220274947A1, “NOVEL HETEROARYL-TRIAZOLE COMPOUNDS AS PESTICIDES” (Bayer Aktiengesellschaft, priority 2019, published 2022).

How the values were obtained:
Assay type in all cases: in vivo
[1] = system: Rhipicephalus microplus; assay: Rhipicephalus (Boophilus) microplus injection test (BOOPMI Inj); settings: 168 h, injection into adult engorged female ticks, egg deposition after 7 days, read-out: activity (efficacy: 100% means all eggs are infertile); for pest or weed control at 0.004 mg: application rate 4 μg/tick; for pest or weed control at 0.02 mg: application rate 20 μg/tick
In short: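 Compound in DMSO, 1 μL, injected abdominally into five adult engorged females, which were then held in a climate chamber. Read-out is egg fertility, scored from deposition at 7 days, with unclear eggs followed to hatching (~42 days); 0% means all eggs fertile, 100% all infertile.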

[2] = system: Rhipicephalus microplus; assay: Rhipicephalus (Boophilus) microplus in-vitro contact test, larval cattle tick, strain Parkhurst (BOOPMI Cont); settings: application rate 5 μg/cm^2 (=500 g/ha), tick larvae, after 48 hours, read-out: activity (efficacy: 100% means all larvae are dead or moribund)
In short: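 After 48 h at 27° C. and 85% humidity, percent dead or moribund larvae was scored from negative geotactic behaviour. Larvae (20-50, Parkhurst strain, synthetic pyrethroid-resistant) were exposed in tubes coated with compound from acetone, 900 ppm corresponding to 5 μg/cm^2.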

[3] = system: Rhipicephalus microplus; assay: Rhipicephalus (Boophilus) microplus dip test (BOOPMI Dip); settings: 168 h, application rate 100 ppm, engorged adult female ticks, after 7 days, read-out: activity (efficacy: 100% means all eggs are infertile)
Method: Rhipicephalus (Boophilus) Microplus—Dip Test (BOOPMI Dip)
Test Animal: cattle ticks (Rhipicephalus microplus) strain parkhurst, SP-resistant Solvent: dimethyl sulfoxide
To produce a suitable preparation of active compound, 10 mg of active compound are dissolved in 0.5 mL solvent, and the concentrate is diluted with water to the desired concentration.
This compound solution is pipetted into tubes. 8-10 engorged, adult, female cattle ticks (Rhipicephalus microplus) are placed in perforated tubes. These tubes are immersed in the aqueous compound solution until the ticks are completely moistened. After the liquid has drained off, the ticks are transferred to a filter paper in a plastic tray and stored in a climate chamber.
After 7 days egg deposition of fertile eggs is monitored. Eggs where fertility is not visible are stored in a climate chamber till hatching after about 42 days. An efficacy of 100% means all eggs are infertile; 0% means all eggs are fertile.

[4] = system: Ctenocephalides felis; assay: Ctenocephalides felis oral test (CTECFE Oral); settings: 48 h, read-out: activity (mortality)
In short: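 Percent mortality was recorded 2 days after roughly 20 adult Ctenocephalides felis fed on treated cattle blood. The blood was warmed to 37 °C beneath a parafilm membrane, with the fleas kept at room temperature. Compound was dissolved in DMSO and diluted into the blood to test concentration.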

[5] = system: Rhipicephalus sanguineus; assay: Rhipicephalus sanguineus in-vitro contact test, adult brown dog ticks (RHIPSA Cont); settings: 48 h, after 48 hours, read-out: activity (efficacy: 100% means all ticks are dead or moribund); for pest or weed control at 1 µg/cm2, 100 g/ha: application rate 1 μg/cm^2 (=100 g/ha); for pest or weed control at 5 µg/cm2, 500 g/ha: application rate 5 μg/cm^2 (=500 g/ha)
In short: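 Compound in acetone was coated onto the inner walls of glass tubes and dried by rotation before adult brown dog ticks were exposed. Efficacy was scored at 48 h. Ticks unable to climb away from a 45–50 °C heating plate within 5 min counted as dead or moribund.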

[6] = system: Diabrotica balteata; assay: Diabrotica balteata spray test; settings: 168 h, wheat seeds, larvae, after 7 days, read-out: activity (efficacy: 100% means all seedlings have grown up like in the untreated, uninfected control); for pest or weed control at 32 µg/disc, 100 g/ha: application rate 100 g/ha (=32 μg/well); for pest or weed control at 160 µg/disc, 500 g/ha: application rate 500 g/ha (=160 μg/well)
In short: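 Efficacy (%) was scored 7 days after spraying, with 100% meaning growth like the untreated, uninfected control and 0% meaning no seedling grew. Spray solutions of compound in acetone/DMF with emulsifier-containing water went onto 1-day-germinated wheat seeds, and each unit was then infested with 10-20 banded cucumber beetle larvae.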

[7] = system: Myzus persicae; assay: Myzus persicae oral test; settings: 120 h, read-out: activity (mortality)
In short: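 Percent mortality was recorded at day 5, where 0% means no aphids killed. Compound prepared from an acetone concentrate diluted in water and combined with IPL41 medium containing sugar was offered to mixed-stage green peach aphids, which sucked it through a parafilm seal.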

[8] = system: Nezara viridula; assay: Nezara viridula spray test; settings: in Hordeum vulgare, 96 h, barley plants, larvae, after 4 days; for mortality at 500 g/ha: application rate 500 g/ha
In short: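 Mortality was read at day 4 (0% = no kill, 100% = total kill) after spraying larva-infested barley plants. Test solutions were made from an acetone/DMF concentrate diluted with water holding 1000 ppm alkylarylpolyglycol ether emulsifier.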

[9] = system: Spodoptera frugiperda; assay: Spodoptera frugiperda spray test; settings: in Zea mays, 168 h, read-out: activity (mortality)
In short: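 Percent kill of fall armyworm caterpillars was assessed 7 days after infesting dried, treated maize leaf sections. Treatment was a spray of compound in acetone/dimethylformamide, diluted with water containing emulsifier at 1000 ppm.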

[10] = system: Ctenocephalides felis; assay: Ctenocephalides felis in-vitro contact test, adult cat flea (CTECFE Cont); settings: application rate 5 μg/cm^2 (=500 g/ha), adult cat fleas, after 48 hours, read-out: activity (efficacy: 100% means all fleas are dead or moribund)
In short: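 Efficacy, as percent of fleas dead or moribund, was scored 48 h after adults (5-10 per tube) were placed in glass tubes whose walls carried dried compound at 5 μg/cm^2 (900 ppm solution). Moribund meant failing to climb away from a 45-50° C. hot plate within 5 min.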

[11] = system: Aedes aegypti strain MONHEIM; assay: Aedes aegypti test (AEDSAE surface treatment & contact assay); settings: surface concentration 20 mg/m^2, glazed tile, exposure 30 minutes, 24 hours after contact, read-out: efficacy (mortality)
In short: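 Compound dissolved in acetone (2 mg/ml) with 2000 ppm rapeseed oil methyl ester, pipetted onto glazed tile and dried. Adult mosquitoes exposed on the surface for 30 min; percent mortality scored 24 h after contact.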

[12] = system: Meloidogyne incognita; assay: Meloidogyne incognita test; settings: application rate 20 ppm, salad seedlings, after 14 days
Method: Meloidogyne incognita—Test Solvent: 125.0 parts by weight of acetone
To produce a suitable preparation of active compound, 1 part by weight of active compound is mixed with the stated amount of solvent, and the concentrate is diluted with water to the desired concentration.
Vessels are filled with sand, a solution of the active ingredient, a suspension containing eggs and larvae of the southern root-knot nematode (Meloidogyne incognita) and salad seeds. The salad seeds germinate and the seedlings grow. Galls develop in the roots.
After 14 days the nematicidal activity is determined based on the percentage of gall formation. 100% means no galls were found and 0% means the number of galls found on the roots of the treated plants was equal to that in untreated control plants.

[13] = system: Nilaparvata lugens; assay: Nilaparvata lugens spray test; settings: 96 h, rice plants, after 4 days; for mortality at 100 g/ha: application rate 100 g/ha; for mortality at 500 g/ha: application rate 500 g/ha
Method: Nilaparvata lugens—Spray Test Solvent: 78.0 parts by weight of acetone • • 1.5 parts by weight of dimethylformamide Emulsifier: alkylarylpolyglycol ether
To produce a suitable preparation of active compound, 1 part by weight of active compound is mixed with the stated amount of solvents and is diluted with water, containing an emulsifier concentration of 1000 ppm, to the desired concentration. Further test concentrations are prepared by dilution with emulsifier containing water.
Rice plants (Oryza sativa) are sprayed with a preparation of the active ingredient of the desired concentration and the plants are infested with the brown planthopper (Nilaparvata lugens).
After 4 days mortality in % is determined. 100% means all planthoppers have been killed and 0% means none of the planthoppers have been killed.

[14] = system: Myzus persicae; assay: Myzus persicae spray test; settings: in Brassica rapa, foliar, 120 h, read-out: activity (mortality), application rate 100 g/ha, spray, Chinese cabbage leaf disks, after 5 days
In short: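 Aphid mortality in % was assessed 5 days after spraying; leaf disks of Brassica pekinensis carrying mixed-instar green peach aphids were treated. Spray preparation: active compound in acetone plus dimethylformamide, diluted with emulsifier-containing water (1000 ppm).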

| Compound | pest or weed control at 0.004 mg [1] [%] | pest or weed control at 0.02 mg [1] [%] | pest or weed control at 5 µg/cm2 [2] [%] | pest or weed control at 100 ppm [3] [%] | mortality at 100 ppm [4] [%] | pest or weed control at 1 µg/cm2, 100 g/ha [5] [%] | pest or weed control at 32 µg/disc, 100 g/ha [6] [%] | pest or weed control at 160 µg/disc, 500 g/ha [6] [%] | mortality at 4 ppm [7] [%] | mortality at 500 g/ha [8] [%] | mortality at 100 g/ha [9] [%] | mortality at 500 g/ha [9] [%] | pest or weed control at 5 µg/cm2 [10] [%] | mortality at 20 mg/m2 [11] [%] | nematicidal activity (100% means no galls were found) [12] [%] | pest or weed control at 5 µg/cm2, 500 g/ha [5] [%] | mortality at 100 g/ha [13] [%] | mortality at 500 g/ha [13] [%] | mortality at 100 g/ha ([8]; application rate 100 g/ha) [%] | mortality at 100 g/ha [14] [%] |
| --- | --- | --- | --- | --- | --- | --- | --- | --- | --- | --- | --- | --- | --- | --- | --- | --- | --- | --- | --- | --- |
| CC(C)c1nc([C@H](C)NC(=O)c2cc(C(F)(F)F)cc(C(F)(F)F)c2)n(-c2ccc(C#N)cn2)n1 [I-7] | 100 | 100 | 100 | 100 | 100 | 100 | 100 | 100 | 100 | 100 | 100 | 83 | – | – | – | – | – | – | – | – |
| CC(C)c1nc([C@H](C)NC(=O)c2cc(Cl)cc(C(F)(F)F)c2)n(-c2ccc(C#N)cn2)n1 [I-8] | 100 | 100 | 80 | 100 | – | – | 100 | 100 | – | – | 100 | 100 | 80 | 80 to 100 | – | – | – | – | – | – |
| CCOc1nc([C@H](C)NC(=O)c2cc(Cl)cc(Cl)c2)n(-c2ccc(C#N)cn2)n1 [I-14] | 100 | 100 | 100 | – | – | – | 100 | 100 | – | – | 83 | 100 | – | – | 100 | – | – | – | – | – |
| CC(C)c1nc([C@H](C)NC(=O)c2cccc(Br)n2)n(-c2ccc(C#N)cn2)n1 [I-23] | 80 | 100 | – | – | – | – | – | – | – | – | – | – | – | – | 90 | 80 | – | – | – | – |
| CC(C)c1nc([C@H](C)NC(=O)c2cc(Br)cc(OC(F)(F)F)c2)n(-c2ccc(C#N)cn2)n1 [I-26] | 100 | 100 | 100 | – | – | 80 | 100 | – | – | – | 100 | – | – | 80 to 100 | – | 100 | 90 | – | – | – |
| C[C@H](NC(=O)c1cc(Cl)cc(C(F)(F)C(F)(F)F)c1)c1nc(C2CC2)nn1-c1ccc(C#N)cn1 [I-43] | 100 | – | 100 | – | 100 | – | 100 | – | – | – | 100 | – | – | – | – | – | 90 | – | – | – |
| C[C@H](NC(=O)c1cc(Cl)cc(C(F)(F)F)c1)c1ncnn1-c1cc([N+](=O)[O-])ccn1 [II-24] | 80 | 100 | 100 | – | – | 80 | – | 80 | – | – | – | 100 | – | – | 100 | – | – | – | – | – |
| C[C@H](NC(=O)c1cc(C(F)(F)F)cc(C(F)(F)F)c1)c1ncnn1-c1ccc(S(C)(=O)=O)cn1 [II-44] | 100 | 100 | 100 | – | – | 100 | 100 | 100 | 100 | 100 | 100 | 100 | – | – | – | 100 | – | 90 | – | – |
| C[C@H](NC(=O)c1cc(C(F)(F)F)cc(C(F)(F)F)c1)c1ncnn1-c1ccc(C(=O)N(C)CC(F)(F)F)cn1 [II-74] | 100 | 100 | 100 | – | – | 100 | 100 | 100 | 100 | 100 | 100 | 100 | 100 | – | – | 100 | – | 90 | – | – |
| Cc1nc([C@H](C)NC(=O)c2cc(C(F)(F)F)cc(C(F)(F)F)c2)n(-c2ccc(C(=O)N(C)CCN(C)C)cn2)n1 [II-95] | 80 | – | 90 | – | 100 | 100 | – | – | 90 | – | – | – | – | – | – | – | 90 | – | 100 | – |
| Cc1nc([C@H](C)NC(=O)c2cc(Cl)cc(C(F)(F)F)c2)n(-c2cnc(C#N)cn2)n1 [II-104] | 100 | – | 100 | – | 100 | 100 | – | – | – | – | 100 | – | 100 | – | – | 100 | 90 | – | – | 100 |
